According to patent US8278455B2, “5- or 6-substituted benzimidazole derivatives as inhibitors of respiratory syncytial virus replication” (Janssen Pharmaceutica N.V., priority 2003, dated 2012):

System: Respiratory Syncytial Virus
Assay: In vitro screening for activity against Respiratory Syncytial Virus (MTT tetrazolium colorimetric assay, HeLa cells)
Assay type: cell-based
Conditions: protection against RSV cytopathology in HeLa cells, 7 days after infection, pEC50 = −log of EC50 in molar units
Description: The percent protection against cytopathology caused by viruses (antiviral activity or EC50) achieved by tested compounds and their cytotoxicity (CC50) are both calculated from dose-response curves. The selectivity of the antiviral effect is represented by the selectivity index (SI), calculated by dividing the CC50 (cytotoxic dose for 50% of the cells) by the EC50 (antiviral activity for 50% of the cells). The tables in the above experimental part list the category to which each of the prepared compounds belong. Compounds belonging to activity category “A” have an pEC50 (−log of EC50 when expressed in molar units) equal to or more than 7. Compounds belonging to activity category “B” have a pEC50 value between 6 and 7.
Automated tetrazolium-based […] assays were used for determination of EC50 and CC50 of test compounds. Flat-bottom, 96-well plastic microtiter trays were filled with 180 μl of Eagle's Basal Medium, supplemented with 5% FCS (0% for FLU) and 20 mM Hepes buffer. Subsequently, stock solutions (7.8× final test concentration) of compounds were added in 45 μl volumes to a series of triplicate wells so as to allow simultaneous evaluation of their effects on virus- and mock-infected cells. Five five-fold dilutions were made directly in the microtiter trays using a robot system. Untreated virus controls, and HeLa cell controls were included in each test. Approximately 100 TCID50 of Respiratory Syncytial Virus was added to two of the three rows in a volume of 50 μl. The same volume of medium was added to the third row to measure the cytotoxicity of the compounds at the same concentrations as those used to measure the antiviral activity. After two hours of incubation, a suspension (4×10^5 cells/ml) of HeLa cells was added to all wells in a volume of 50 μl. The cultures were incubated at 37° C. in a 5% CO2 atmosphere. Seven days after infection the cytotoxicity and the antiviral activity was examined spectrophotometrically. To each well of the microtiter tray, 25 μl of a solution of MTT (3-(4,5-dimethylthiazol-2-yl)-2,5-diphenyltetrazolium bromide) was added. The trays were further incubated at 37° C. for 2 hours, after which the medium was removed from each cup. Solubilization of the formazan crystals was achieved by adding 100 μl 2-propanol. Complete dissolution of the formazan crystals were obtained after the trays have been placed on a plate shaker for 10 min. Finally, the absorbances were read in an eight-channel computer-controlled photometer (Multiskan MCC, Flow Laboratories) at two wavelengths (540 and 690 nm). The absorbance measured at 690 nm was automatically subtracted from the absorbance at 540 nm, so as to eliminate the effects of non-specific absorption.

Molecule	Activity	EC50 (human respiratory syncytial virus, 168 h) [nM]
2-[6-[(1-ethylidene-3-methyl-penta-2,4-dienylamino)-methyl]-2-(1-methyl-piperidin-4-ylamino)-benzoimidazol-1-ylmethyl]-6-methyl-pyridin-3-ol [Compound 9]	8.3	–
Cc1cc(C)cc(N(CCO)Cc2ccc3nc(NC4CCN(C)CC4)n(Cc4nc(C)ccc4O)c3c2)c1 [Compound 1]	9.4	–
Cc1ccc(O)c(Cn2c(NC3CCN(C)CC3)nc3ccc(CNc4cc(Cl)cc(Cl)c4)cc32)n1 [Compound 2, 2-[6-[(3,5-dichloro-phenylamino)-methyl]-2-(1-methyl-piperidin-4-ylamino)-benzoimidazol-1-ylmethyl]-6-methyl-pyridin-3-ol]	–	2
Cc1cc(C)cc(NCc2ccc3nc(NC4CCN(C)CC4)n(Cc4nc(C)ccc4O)c3c2)c1 [Compound 3]	8.6	–
Cc1ccc(O)c(Cn2c(NC3CCN(C)CC3)nc3ccc(CN(CCO)c4ccccc4)cc32)n1 [Compound 4]	8.5	–
Cc1cc(C)cc(N(CCN(C)C)Cc2ccc3nc(NC4CCN(C)CC4)n(Cc4nc(C)ccc4O)c3c2)c1 [Compound 5]	8.5	–
Cc1ccc(O)c(Cn2c(NC3CCN(C)CC3)nc3ccc(CNc4cccc(Br)c4)cc32)n1 [Compound 6]	8.4	–
Cc1ccc(O)c(Cn2c(NC3CCN(C)CC3)nc3ccc(CNc4ccccc4CO)cc32)n1 [Compound 7]	8.4	–
CCc1ccccc1NCc1ccc2nc(NC3CCN(C)CC3)n(Cc3nc(C)ccc3O)c2c1 [Compound 8]	8.4	–
Cc1ccc(O)c(Cn2c(NC3CCN(C)CC3)nc3ccc(CNc4ccc(S(N)(=O)=O)cc4)cc32)n1 [Compound 10]	8.3	–
Cc1ccc(O)c(Cn2c(NC3CCN(C)CC3)nc3ccc(CNc4cccc(Cl)c4)cc32)n1 [Compound 11]	8.2	–
Cc1ccc(O)c(Cn2c(NC3CCN(C)CC3)nc3ccc(CNc4ccc(C#N)cc4)cc32)n1 [Compound 12]	8.2	–
C#Cc1cccc(NCc2ccc3nc(NC4CCN(C)CC4)n(Cc4nc(C)ccc4O)c3c2)c1 [Compound 13]	8.1	–
Cc1ccc(O)c(Cn2c(NC3CCN(C)CC3)nc3ccc(CNc4ccccc4C(N)=O)cc32)n1 [Compound 14]	8.1	–
CCc1cccc(NCc2ccc3nc(NC4CCN(C)CC4)n(Cc4nc(C)ccc4O)c3c2)c1 [Compound 15]	8	–
Cc1ccc(O)c(Cn2c(NC3CCN(C)CC3)nc3ccc(CN(c4ccccc4)c4ccc(O)cc4)cc32)n1 [Compound 16]	8	–
CC(=O)c1ccc(NCc2ccc3nc(NC4CCN(C)CC4)n(Cc4nc(C)ccc4O)c3c2)cc1 [Compound 17]	8	–
Cc1ccc(O)c(Cn2c(NC3CCN(C)CC3)nc3ccc(CNc4cccc(F)c4)cc32)n1 [Compound 18]	7.9	–
CC(=O)c1cccc(NCc2ccc3nc(NC4CCN(C)CC4)n(Cc4nc(C)ccc4O)c3c2)c1 [Compound 19]	7.9	–
Cc1ccc(O)c(Cn2c(NC3CCN(C)CC3)nc3ccc(CNc4cccc(C)c4C)cc32)n1 [Compound 20]	7.9	–

Molecule	Activity	EC50 (human respiratory syncytial virus, 168 h) [nM]
Cc1ccc(O)c(Cn2c(NC3CCN(C)CC3)nc3ccc(CNc4ccccc4C(C)C)cc32)n1 [Compound 21]	7.9	–
Cc1ccc(O)c(Cn2c(NC3CCN(C)CC3)nc3ccc(CNc4ccccc4Br)cc32)n1 [Compound 22]	7.9	–
Cc1ccc(O)c(Cn2c(NC3CCN(C)CC3)nc3ccc(CNc4ccccc4F)cc32)n1 [Compound 23]	7.9	–
CCOC(=O)c1ccc(NCc2ccc3nc(NC4CCN(C)CC4)n(Cc4nc(C)ccc4O)c3c2)c(O)c1 [Compound 24]	7.9	–
CSc1cccc(NCc2ccc3nc(NC4CCN(C)CC4)n(Cc4nc(C)ccc4O)c3c2)c1 [Compound 25]	7.9	–
Cc1ccc(O)c(Cn2c(NC3CCN(C)CC3)nc3ccc(CNc4ccc(F)cc4)cc32)n1 [Compound 26]	7.9	–
Cc1ccc(O)c(Cn2c(NC3CCN(C)CC3)nc3ccc(CN(Cc4cnc[nH]4)c4ccc(Cl)cc4)cc32)n1 [Compound 27]	7.9	–
Cc1ccc(O)c(Cn2c(NC3CCN(C)CC3)nc3ccc(CCc4ccccc4)cc32)n1 [Compound 29]	7.8	–
Cc1ccc(O)c(Cn2c(NC3CCN(C)CC3)nc3ccc(CNc4ccccc4)cc32)n1 [Compound 30]	7.8	–
Cc1ccc(O)c(Cn2c(NC3CCN(C)CC3)nc3ccc(CNc4cccc5cccnc45)cc32)n1 [Compound 31]	7.8	–
Cc1ccc(O)c(Cn2c(NC3CCN(C)CC3)nc3ccc(CNc4ccc5c(c4)OCCO5)cc32)n1 [Compound 32]	7.8	–
Cc1ccc(O)c(Cn2c(NC3CCN(C)CC3)nc3ccc(CNc4ccc(CC#N)cc4)cc32)n1 [Compound 34]	7.8	–
COc1cc(NCc2ccc3nc(NC4CCN(C)CC4)n(Cc4nc(C)ccc4O)c3c2)cc(OC)c1 [Compound 36]	7.7	–
Cc1ccc(NCc2ccc3nc(NC4CCN(C)CC4)n(Cc4nc(C)ccc4O)c3c2)cc1 [Compound 37]	7.7	–
Cc1ccc(O)c(Cn2c(NC3CCN(C)CC3)nc3ccc(CNc4ccc(Br)cc4)cc32)n1 [Compound 38]	7.7	–
Cc1ccc(O)c(Cn2c(NC3CCN(C)CC3)nc3ccc(CN(CC(=O)O)c4ccccc4)cc32)n1 [Compound 39]	7.7	–
Cc1ccc(O)c(Cn2c(NC3CCN(C)CC3)nc3ccc(CNc4cccc(Cl)c4C)cc32)n1 [Compound 40]	7.6	–
Cc1ccc(O)c(Cn2c(NC3CCN(C)CC3)nc3ccc(CNc4ccc(C)c(C)c4)cc32)n1 [Compound 41]	7.6	–
Cc1ccc(O)c(Cn2c(NC3CCN(C)CC3)nc3ccc(CNc4ccccc4-c4ccccc4)cc32)n1 [Compound 42]	7.6	–
CCc1cc(C#N)ccc1NCc1ccc2nc(NC3CCN(C)CC3)n(Cc3nc(C)ccc3O)c2c1 [Compound 43]	7.6	–

Molecule	Activity	EC50 (human respiratory syncytial virus, 168 h) [nM]
Cc1ccc(O)c(Cn2c(NC3CCN(C)CC3)nc3ccc(CNc4ccc5c(c4)CCC5)cc32)n1 [Compound 45]	7.5	–
Cc1ccc(O)c(Cn2c(NC3CCN(C)CC3)nc3ccc(CNc4c(F)cccc4F)cc32)n1 [Compound 46]	7.5	–
CCc1cccc(C)c1NCc1ccc2nc(NC3CCN(C)CC3)n(Cc3nc(C)ccc3O)c2c1 [Compound 47]	7.5	–
Cc1ccc(O)c(Cn2c(NC3CCN(C)CC3)nc3ccc(CNc4ccc(Br)cc4F)cc32)n1 [Compound 48]	7.5	–
CC(=O)Nc1cccc(NCc2ccc3nc(NC4CCN(C)CC4)n(Cc4nc(C)ccc4O)c3c2)c1 [Compound 49]	7.4	–
Cc1ccc(O)c(Cn2c(NC3CCN(C)CC3)nc3ccc(CNc4ccc(F)c(F)c4)cc32)n1 [Compound 50]	7.4	–
Cc1ccc(O)c(Cn2c(NC3CCN(C)CC3)nc3ccc(CN(C)c4ccccc4)cc32)n1 [Compound 51]	7.4	–
CCc1cccc(CC)c1NCc1ccc2nc(NC3CCN(C)CC3)n(Cc3nc(C)ccc3O)c2c1 [Compound 52]	7.4	–
CC(=O)Nc1ccc(NCc2ccc3nc(NC4CCN(C)CC4)n(Cc4nc(C)ccc4O)c3c2)cc1 [Compound 53]	7.4	–
CCOC(=O)c1ccc(NCc2ccc3nc(NC4CCN(C)CC4)n(Cc4nc(C)ccc4O)c3c2)cc1 [Compound 54]	7.4	–
Cc1ccc(O)c(Cn2c(NC3CCN(C)CC3)nc3cc(NC(=O)c4cccnc4)ccc32)n1 [Compound 55]	7.3	–
Cc1ccc(O)c(Cn2c(NC3CCN(C)CC3)nc3ccc(NCc4ccccc4)cc32)n1 [Compound 56]	7.3	–
CCOC(=O)c1cccc(NCc2ccc3nc(NC4CCN(C)CC4)n(Cc4nc(C)ccc4O)c3c2)c1 [Compound 57]	7.3	–
Cc1ccc(O)c(Cn2c(NC3CCN(C)CC3)nc3ccc(CNc4cccc(C(N)=O)c4)cc32)n1 [Compound 58]	7.3	–
Cc1ccc(O)c(Cn2c(NC3CCN(C)CC3)nc3ccc(CN(CCN(C)C)Cc4ccccc4)cc32)n1.Cl [Compound 59]	7.3	–
Cc1ccc(O)c(Cn2c(NC3CCN(C)CC3)nc3ccc(CNc4ccc(C)c(F)c4)cc32)n1 [Compound 60]	7.3	–
COc1ccc(NCc2ccc3nc(NC4CCN(C)CC4)n(Cc4nc(C)ccc4O)c3c2)cc1OC [Compound 61]	7.3	–
CCN(Cc1ccc2nc(NC3CCN(C)CC3)n(Cc3nc(C)ccc3O)c2c1)c1ccccc1 [Compound 62]	7.3	–
